This is an account of results in ChEMBL document CHEMBL5291721, “A preclinical secondary pharmacology resource illuminates target-adverse drug reaction associations of marketed drugs” (Nat Commun, 2023).

Among the targets are Histamine H3 receptor (Homo sapiens, UniProt Q9Y5N1); Mu-type opioid receptor (Homo sapiens, UniProt P35372); D(3) dopamine receptor (Homo sapiens, UniProt P35462); D(1A) dopamine receptor (Homo sapiens, UniProt P21728).
For assay [1], the target named is T1, Prostaglandin G/H synthase 1 (Homo sapiens, UniProt P23219). In kind it is functional.
Assay [2] deals with T2, 5-hydroxytryptamine receptor 1A (Homo sapiens, UniProt P08908).
T2 sequence (P08908 whole entry): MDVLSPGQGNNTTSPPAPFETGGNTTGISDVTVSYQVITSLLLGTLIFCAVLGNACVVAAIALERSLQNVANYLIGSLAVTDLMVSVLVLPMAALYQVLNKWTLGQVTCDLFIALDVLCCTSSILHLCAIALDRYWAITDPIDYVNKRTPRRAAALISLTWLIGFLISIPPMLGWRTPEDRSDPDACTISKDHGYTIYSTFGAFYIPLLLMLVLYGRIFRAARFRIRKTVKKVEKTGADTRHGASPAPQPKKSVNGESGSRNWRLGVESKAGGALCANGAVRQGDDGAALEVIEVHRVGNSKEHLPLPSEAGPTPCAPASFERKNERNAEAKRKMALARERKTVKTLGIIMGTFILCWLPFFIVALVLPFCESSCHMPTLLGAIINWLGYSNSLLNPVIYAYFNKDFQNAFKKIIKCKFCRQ

The target in assay [3] is cGMP-inhibited 3',5'-cyclic phosphodiesterase 3A (Homo sapiens, UniProt Q14432). In kind it is functional.
Sequence of cGMP-inhibited 3',5'-cyclic phosphodiesterase 3A (Q14432 whole entry): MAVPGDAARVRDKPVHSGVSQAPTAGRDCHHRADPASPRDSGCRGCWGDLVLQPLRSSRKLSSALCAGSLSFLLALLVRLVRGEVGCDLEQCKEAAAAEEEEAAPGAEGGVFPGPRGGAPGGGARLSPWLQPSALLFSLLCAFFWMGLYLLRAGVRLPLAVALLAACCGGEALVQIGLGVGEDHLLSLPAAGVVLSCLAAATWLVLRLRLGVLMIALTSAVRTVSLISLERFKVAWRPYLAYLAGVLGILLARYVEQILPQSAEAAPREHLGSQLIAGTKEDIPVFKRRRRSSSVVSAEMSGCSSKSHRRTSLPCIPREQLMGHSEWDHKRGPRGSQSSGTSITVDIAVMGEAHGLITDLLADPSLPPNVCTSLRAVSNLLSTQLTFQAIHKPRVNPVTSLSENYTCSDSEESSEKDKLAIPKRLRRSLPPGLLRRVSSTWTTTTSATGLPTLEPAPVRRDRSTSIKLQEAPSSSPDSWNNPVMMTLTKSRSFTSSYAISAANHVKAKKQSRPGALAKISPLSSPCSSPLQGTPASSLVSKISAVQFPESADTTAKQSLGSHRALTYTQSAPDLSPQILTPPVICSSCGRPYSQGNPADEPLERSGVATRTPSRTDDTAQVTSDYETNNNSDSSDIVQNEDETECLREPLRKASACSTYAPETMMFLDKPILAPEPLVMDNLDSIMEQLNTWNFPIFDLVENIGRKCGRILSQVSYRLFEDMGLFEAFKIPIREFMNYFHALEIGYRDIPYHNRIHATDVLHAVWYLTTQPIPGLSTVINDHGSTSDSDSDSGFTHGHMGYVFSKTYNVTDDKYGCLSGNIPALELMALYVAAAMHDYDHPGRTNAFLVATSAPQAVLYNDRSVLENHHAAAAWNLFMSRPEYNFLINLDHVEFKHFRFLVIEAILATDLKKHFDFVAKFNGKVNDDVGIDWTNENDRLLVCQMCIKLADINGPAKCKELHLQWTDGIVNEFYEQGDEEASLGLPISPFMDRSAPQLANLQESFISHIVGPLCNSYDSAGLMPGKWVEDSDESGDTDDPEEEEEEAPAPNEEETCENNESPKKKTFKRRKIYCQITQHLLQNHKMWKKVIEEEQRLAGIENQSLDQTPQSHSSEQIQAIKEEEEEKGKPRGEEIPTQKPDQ
For assay [4], the target named is T3, Muscarinic acetylcholine receptor M2 (Homo sapiens, UniProt P08172).
T3 sequence (P08172 whole entry): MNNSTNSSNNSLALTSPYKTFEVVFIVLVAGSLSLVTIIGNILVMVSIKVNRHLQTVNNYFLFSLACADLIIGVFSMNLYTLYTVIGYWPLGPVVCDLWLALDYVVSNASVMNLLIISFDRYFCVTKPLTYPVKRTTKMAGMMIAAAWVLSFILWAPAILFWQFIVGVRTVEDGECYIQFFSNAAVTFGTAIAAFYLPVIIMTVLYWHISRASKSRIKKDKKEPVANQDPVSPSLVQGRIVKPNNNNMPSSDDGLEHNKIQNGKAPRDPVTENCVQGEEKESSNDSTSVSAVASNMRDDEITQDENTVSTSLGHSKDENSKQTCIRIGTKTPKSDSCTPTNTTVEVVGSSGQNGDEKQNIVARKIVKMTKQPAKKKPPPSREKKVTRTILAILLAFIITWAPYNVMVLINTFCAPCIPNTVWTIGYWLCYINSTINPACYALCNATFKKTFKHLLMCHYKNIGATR

Assay [5] deals with T1, Prostaglandin G/H synthase 1. In kind it is functional. This is another data set of the same source.
Assay [6] deals with T4, Thromboxane A2 receptor (Homo sapiens, UniProt P21731).
T4 sequence (P21731 whole entry): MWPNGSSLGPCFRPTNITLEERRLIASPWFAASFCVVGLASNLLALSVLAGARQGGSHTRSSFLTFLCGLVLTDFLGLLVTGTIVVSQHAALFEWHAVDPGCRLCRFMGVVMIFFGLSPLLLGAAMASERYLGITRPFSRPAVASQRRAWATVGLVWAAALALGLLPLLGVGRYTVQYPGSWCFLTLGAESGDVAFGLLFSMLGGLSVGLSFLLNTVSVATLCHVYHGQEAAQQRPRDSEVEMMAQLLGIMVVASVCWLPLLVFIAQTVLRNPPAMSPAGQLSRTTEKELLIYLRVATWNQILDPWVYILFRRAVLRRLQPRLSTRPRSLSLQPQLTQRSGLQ
In kind it is functional, cell-based.

Assay [7] has as its target 5-hydroxytryptamine receptor 2B (Homo sapiens, UniProt P41595). In kind it is functional, cell-based.
The next assay concerns the target Acetylcholinesterase (Homo sapiens, UniProt P22303). In kind it is functional.
Assay [8] has as its target 3',5'-cyclic-AMP phosphodiesterase 4A (Homo sapiens, UniProt P27815). In kind it is functional.
Assay [9] has as its target T5, Alpha-2A adrenergic receptor (Homo sapiens, UniProt P08913).
T5 sequence (P08913 whole entry): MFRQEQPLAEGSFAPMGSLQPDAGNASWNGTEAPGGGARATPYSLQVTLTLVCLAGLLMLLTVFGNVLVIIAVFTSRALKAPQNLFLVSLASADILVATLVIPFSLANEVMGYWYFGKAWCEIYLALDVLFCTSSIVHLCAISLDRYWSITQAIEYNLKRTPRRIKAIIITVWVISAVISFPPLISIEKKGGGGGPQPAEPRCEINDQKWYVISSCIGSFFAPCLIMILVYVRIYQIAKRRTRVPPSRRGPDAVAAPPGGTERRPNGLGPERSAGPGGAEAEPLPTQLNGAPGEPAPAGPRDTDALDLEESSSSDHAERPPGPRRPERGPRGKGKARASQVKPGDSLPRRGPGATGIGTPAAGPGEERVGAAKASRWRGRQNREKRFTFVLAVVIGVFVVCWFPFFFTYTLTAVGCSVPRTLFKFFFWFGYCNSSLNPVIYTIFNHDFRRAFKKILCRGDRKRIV

The target in the next assay is Prothrombin (Homo sapiens, UniProt P00734). In kind it is functional.
Assay [10] deals with Sodium-dependent dopamine transporter (Homo sapiens, UniProt Q01959).
Sequence of Sodium-dependent dopamine transporter (Q01959 whole entry): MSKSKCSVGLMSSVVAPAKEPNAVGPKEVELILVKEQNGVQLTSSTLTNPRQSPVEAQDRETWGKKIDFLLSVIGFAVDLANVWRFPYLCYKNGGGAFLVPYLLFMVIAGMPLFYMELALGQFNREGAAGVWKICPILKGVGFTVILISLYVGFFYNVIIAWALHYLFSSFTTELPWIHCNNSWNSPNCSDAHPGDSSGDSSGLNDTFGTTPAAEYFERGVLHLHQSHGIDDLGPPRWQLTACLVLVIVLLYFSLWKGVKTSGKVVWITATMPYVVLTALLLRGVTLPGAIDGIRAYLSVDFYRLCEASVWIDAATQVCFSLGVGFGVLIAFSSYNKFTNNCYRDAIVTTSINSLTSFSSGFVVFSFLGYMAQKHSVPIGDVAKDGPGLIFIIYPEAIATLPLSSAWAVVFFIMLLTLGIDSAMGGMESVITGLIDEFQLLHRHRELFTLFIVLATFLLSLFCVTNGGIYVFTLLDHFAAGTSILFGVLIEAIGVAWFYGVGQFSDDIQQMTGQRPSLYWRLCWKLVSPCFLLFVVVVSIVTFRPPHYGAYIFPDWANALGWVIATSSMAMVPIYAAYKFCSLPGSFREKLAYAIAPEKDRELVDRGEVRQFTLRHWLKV
In assay [11] the target is Voltage-gated inwardly rectifying potassium channel KCNH2 (Homo sapiens, UniProt Q12809). In kind it is functional. To be noted: read-out: AC50.
The target in assay [12] is T4, Thromboxane A2 receptor. In kind it is functional, cell-based. The source holds these as a separate data set.
The target of assay [13] is Sodium-dependent noradrenaline transporter (Homo sapiens, UniProt P23975).
Sequence of Sodium-dependent noradrenaline transporter (P23975 whole entry): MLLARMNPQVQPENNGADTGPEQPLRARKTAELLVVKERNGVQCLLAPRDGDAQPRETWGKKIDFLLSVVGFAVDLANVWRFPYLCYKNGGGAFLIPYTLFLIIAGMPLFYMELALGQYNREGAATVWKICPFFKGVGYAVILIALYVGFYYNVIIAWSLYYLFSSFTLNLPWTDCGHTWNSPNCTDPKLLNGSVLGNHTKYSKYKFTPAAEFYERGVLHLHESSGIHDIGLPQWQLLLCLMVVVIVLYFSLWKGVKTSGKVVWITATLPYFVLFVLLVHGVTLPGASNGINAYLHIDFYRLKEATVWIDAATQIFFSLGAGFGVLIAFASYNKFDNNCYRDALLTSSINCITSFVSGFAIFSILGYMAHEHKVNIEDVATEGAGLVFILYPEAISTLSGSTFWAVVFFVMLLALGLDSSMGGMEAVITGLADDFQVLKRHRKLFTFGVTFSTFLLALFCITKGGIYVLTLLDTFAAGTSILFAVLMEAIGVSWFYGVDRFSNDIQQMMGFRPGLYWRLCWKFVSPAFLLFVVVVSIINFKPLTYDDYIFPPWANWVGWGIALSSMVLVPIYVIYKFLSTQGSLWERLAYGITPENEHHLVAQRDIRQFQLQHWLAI

Where only a bound is given, the exact number is not on record here.
Further: assay procedure not described here.

Sequence of Acetylcholinesterase (P22303 whole entry): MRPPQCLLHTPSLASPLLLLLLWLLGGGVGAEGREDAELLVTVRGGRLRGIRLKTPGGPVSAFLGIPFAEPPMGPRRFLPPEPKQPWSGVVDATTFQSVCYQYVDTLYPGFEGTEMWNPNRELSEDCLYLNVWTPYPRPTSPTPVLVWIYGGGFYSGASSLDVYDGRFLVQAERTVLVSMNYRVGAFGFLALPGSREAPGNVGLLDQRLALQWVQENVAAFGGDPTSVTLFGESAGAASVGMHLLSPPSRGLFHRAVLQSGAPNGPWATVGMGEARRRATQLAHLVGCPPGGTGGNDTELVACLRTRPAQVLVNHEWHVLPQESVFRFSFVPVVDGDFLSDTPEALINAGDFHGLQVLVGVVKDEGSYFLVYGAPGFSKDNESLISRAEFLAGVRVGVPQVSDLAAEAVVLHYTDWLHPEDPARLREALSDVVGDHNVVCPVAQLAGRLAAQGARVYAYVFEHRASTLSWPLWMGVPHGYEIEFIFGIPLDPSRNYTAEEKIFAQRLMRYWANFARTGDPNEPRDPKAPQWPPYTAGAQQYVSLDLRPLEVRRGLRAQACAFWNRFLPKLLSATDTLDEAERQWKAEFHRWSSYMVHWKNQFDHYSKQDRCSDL
Sequence of 5-hydroxytryptamine receptor 2B (P41595 whole entry): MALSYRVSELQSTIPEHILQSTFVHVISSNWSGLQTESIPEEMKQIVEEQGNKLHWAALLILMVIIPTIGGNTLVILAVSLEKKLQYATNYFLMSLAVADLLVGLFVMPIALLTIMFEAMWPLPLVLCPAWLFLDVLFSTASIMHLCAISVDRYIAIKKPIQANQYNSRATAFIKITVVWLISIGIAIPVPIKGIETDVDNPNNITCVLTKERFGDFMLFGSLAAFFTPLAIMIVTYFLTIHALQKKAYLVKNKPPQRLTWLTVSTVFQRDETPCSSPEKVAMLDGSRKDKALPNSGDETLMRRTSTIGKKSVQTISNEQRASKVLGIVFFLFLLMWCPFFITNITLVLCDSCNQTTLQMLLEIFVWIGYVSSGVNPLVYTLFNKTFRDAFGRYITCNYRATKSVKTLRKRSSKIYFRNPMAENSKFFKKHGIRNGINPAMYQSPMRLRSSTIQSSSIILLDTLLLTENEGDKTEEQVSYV
Sequence of Mu-type opioid receptor (P35372 whole entry): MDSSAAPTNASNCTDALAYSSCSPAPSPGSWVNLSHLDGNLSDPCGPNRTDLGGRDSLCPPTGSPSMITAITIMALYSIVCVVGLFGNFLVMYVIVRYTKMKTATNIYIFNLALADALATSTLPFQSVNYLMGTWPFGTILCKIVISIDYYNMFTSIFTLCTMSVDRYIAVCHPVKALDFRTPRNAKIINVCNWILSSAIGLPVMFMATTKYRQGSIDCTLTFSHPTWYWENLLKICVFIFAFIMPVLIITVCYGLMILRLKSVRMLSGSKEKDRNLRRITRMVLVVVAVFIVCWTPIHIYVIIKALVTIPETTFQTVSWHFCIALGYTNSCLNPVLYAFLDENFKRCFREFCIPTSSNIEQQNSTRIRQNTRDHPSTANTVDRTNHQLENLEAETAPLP
Sequence of D(1A) dopamine receptor (P21728 whole entry): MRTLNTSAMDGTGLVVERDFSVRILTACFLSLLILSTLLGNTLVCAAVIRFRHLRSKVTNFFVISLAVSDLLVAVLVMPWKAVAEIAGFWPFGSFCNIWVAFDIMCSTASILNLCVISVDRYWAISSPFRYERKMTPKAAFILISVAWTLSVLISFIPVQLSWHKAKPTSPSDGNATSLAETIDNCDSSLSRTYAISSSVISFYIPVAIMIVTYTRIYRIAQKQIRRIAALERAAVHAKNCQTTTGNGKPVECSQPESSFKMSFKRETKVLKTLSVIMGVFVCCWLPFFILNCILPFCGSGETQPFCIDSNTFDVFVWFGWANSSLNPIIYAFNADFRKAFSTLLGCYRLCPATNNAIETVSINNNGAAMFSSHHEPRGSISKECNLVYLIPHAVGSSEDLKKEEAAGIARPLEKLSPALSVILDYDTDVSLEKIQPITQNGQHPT
Sequence of D(3) dopamine receptor (P35462 whole entry): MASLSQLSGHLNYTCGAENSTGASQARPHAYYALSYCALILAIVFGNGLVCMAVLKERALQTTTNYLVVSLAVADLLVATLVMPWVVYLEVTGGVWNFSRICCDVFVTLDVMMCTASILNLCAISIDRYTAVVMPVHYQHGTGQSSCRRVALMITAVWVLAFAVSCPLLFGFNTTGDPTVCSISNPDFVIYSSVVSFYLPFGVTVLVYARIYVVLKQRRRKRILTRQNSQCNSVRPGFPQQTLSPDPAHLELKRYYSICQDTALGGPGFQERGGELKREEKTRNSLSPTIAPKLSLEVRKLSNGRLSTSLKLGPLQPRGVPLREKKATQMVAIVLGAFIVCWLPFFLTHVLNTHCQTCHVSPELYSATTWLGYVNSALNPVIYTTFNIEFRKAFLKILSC

As for `O=C(O)c1cc(=O)c2ccccc2o1` [CHROMOCARB], the AC50 (usually the midpoint of the concentration-response curve, whichever way the signal moves) is 23.9 µM in assay [1]; greater than 30 µM at Histamine H3 receptor; greater than 30 µM at Mu-type opioid receptor; greater than 30 µM in assay [2]; greater than 30 µM in [3]; greater than 30 µM in assay [4]. Besides, the AC50 (in assay [5]; at Thromboxane A2 receptor [6]; in assay [7]; on D(3) dopamine receptor; at Acetylcholinesterase; in assay [8]) was greater than 30 µM each time. Moreover, the AC50 (on D(1A) dopamine receptor; in assay [9]; at Prothrombin; in assay [10]; in [11]; on Thromboxane A2 receptor [12]) was greater than 30 µM throughout. The same compound had an AC50 in [13] greater than 30 µM.
Take `CN(CC(=O)O)C(=N)N` [CREATINE]: the AC50 (in assay [1]; at Histamine H3 receptor; at Mu-type opioid receptor; in [2]; in [3]; in assay [4]) was greater than 30 µM throughout. Further, the AC50 (in assay [5]; on Thromboxane A2 receptor [6]; in assay [7]; on D(3) dopamine receptor; at Acetylcholinesterase; in assay [8]) was greater than 30 µM throughout. Also, the AC50 (on D(1A) dopamine receptor; in assay [9]; on Prothrombin; in assay [10]; in [11]; on Thromboxane A2 receptor [12]) was greater than 30 µM in each case. This compound yielded an AC50 in assay [13] greater than 30 µM.
For the compound `C[C@]12CC[C@@H]3c4ccc(O)cc4CC[C@H]3[C@@H]1CC[C@@H]2OC(=O)CCC1CCCC1` [ESTRADIOL CYPIONATE], the concentration at half-maximal activity (AC50) in assay [1] is 4.37 µM; at Histamine H3 receptor, greater than 30 µM; on Mu-type opioid receptor, greater than 30 µM; in [2] it was greater than 30 µM; in [3], 12.5 µM; in [4], greater than 30 µM. Also, the AC50 in [5] is greater than 30 µM; on Thromboxane A2 receptor [6], greater than 30 µM; in [7], greater than 30 µM; at D(3) dopamine receptor it was greater than 30 µM; at Acetylcholinesterase it was greater than 30 µM; in [8], 17.6 µM. In addition, the concentration at half-maximal activity (AC50) (at D(1A) dopamine receptor; in assay [9]; on Prothrombin; in assay [10]; in [11]; on Thromboxane A2 receptor [12]) was greater than 30 µM throughout. In [13], this compound gave an AC50 greater than 30 µM.
Regarding `CC1(C)O[C@@H]2C[C@H]3[C@@H]4CCC5=CC(=O)CC[C@]5(C)[C@@]4(F)[C@@H](O)C[C@]3(C)[C@]2(C(=O)CCl)O1` [HALCINONIDE], the AC50 (in assay [1]; at Histamine H3 receptor; on Mu-type opioid receptor; in assay [2]; in [3]; in [4]) was greater than 30 µM in each case. Also, the AC50 (in assay [5]; at Thromboxane A2 receptor [6]; in assay [7]; at D(3) dopamine receptor; at Acetylcholinesterase; in assay [8]) was greater than 30 µM in each case. Further, the AC50 (on D(1A) dopamine receptor; in [9]; on Prothrombin; in assay [10]; in assay [11]; at Thromboxane A2 receptor [12]) was greater than 30 µM in each case. For the same compound, the AC50 in assay [13] is greater than 30 µM.
Take `N=C(N)NCc1cccc([123I])c1` [IOBENGUANE I 123]: the AC50 in [1] is greater than 30 µM; at Histamine H3 receptor, greater than 30 µM; at Mu-type opioid receptor, 22 µM; in assay [2], 2.49 µM; in assay [3] it was greater than 30 µM; in assay [4], greater than 30 µM. In addition, the AC50 is greater than 30 µM in assay [5]; greater than 30 µM at Thromboxane A2 receptor [6]; greater than 30 µM in assay [7]; 8.17 µM on D(3) dopamine receptor; greater than 30 µM at Acetylcholinesterase; greater than 30 µM in [8]. The AC50 at D(1A) dopamine receptor was 13.4 µM; in assay [9], 0.488 µM; at Prothrombin, greater than 30 µM; in assay [10] it was 6.39 µM; in assay [11], greater than 30 µM; on Thromboxane A2 receptor [12], greater than 30 µM. The compound also had an AC50 in assay [13] of 8.75 µM.
As for `C=C1c2c(Cl)ccc(O)c2C(=O)C2=C(O)[C@]3(O)C(=O)C(C(N)=O)=C(O)[C@@H](N(C)C)[C@@H]3[C@@H](O)[C@H]12` [MECLOCYCLINE], the AC50 (in [1]; on Histamine H3 receptor; on Mu-type opioid receptor; in assay [2]; in [3]; in assay [4]) was greater than 30 µM each time. For the same compound, the AC50 (in assay [5]; at Thromboxane A2 receptor [6]; in [7]; on D(3) dopamine receptor; on Acetylcholinesterase; in assay [8]) was greater than 30 µM in each case. The AC50 (at D(1A) dopamine receptor; in assay [9]; at Prothrombin; in [10]; in assay [11]; at Thromboxane A2 receptor [12]) was greater than 30 µM throughout. In addition, the AC50 in assay [13] is greater than 30 µM.
Regarding `Cc1cc2c(OCC(O)CNC(C)C)cccc2[nH]1` (stereo not drawn) [MEPINDOLOL], the AC50 was 15.2 µM in assay [1]; greater than 30 µM at Histamine H3 receptor; 21 µM on Mu-type opioid receptor; 0.0041 µM in assay [2]; greater than 30 µM in assay [3]; greater than 30 µM in assay [4]. For the same compound, the AC50 in assay [5] was 10.9 µM; on Thromboxane A2 receptor [6], greater than 30 µM; in [7], greater than 30 µM; on D(3) dopamine receptor, 19.9 µM; at Acetylcholinesterase, greater than 30 µM; in [8] it was greater than 30 µM. Also, the AC50 at D(1A) dopamine receptor was greater than 30 µM; in assay [9] it was 12.3 µM; at Prothrombin it was greater than 30 µM; in [10], greater than 30 µM; in [11], greater than 30 µM; on Thromboxane A2 receptor [12] it was greater than 30 µM. In assay [13], this compound registered an AC50 of 5.31 µM.
